Laboratory results: patent US20250339359A1, “PEPTIDE HAVING ACTIVITY OF IMPROVING STATE OF SKIN, AND USE THEREOF” (CAREGEN CO., LTD., priority 2021, published 2025)

What was measured:
HaCaT cells [1] = assay: Reactive oxygen species level after ultraviolet irradiation (DCF-DA, FACS), HaCaT; type: cell-based, human; conditions: 15 m J/cm2 ultraviolet rays, 50 µM or 100 µM peptide, 24 hours, FIG. 7B
Experimental: (§1) In this example, the aim was to confirm the effect of the peptide according to an embodiment on the antioxidant effect of skin cells induced by ultraviolet rays, by evaluating the level of reactive oxygen species in skin cells increased by ultraviolet irradiation.
(§2) Specifically, NIH3T3 cells or HaCaT cells were seeded in a 6-well plate at a density of 5×10^5 cells/well and cultured for 24 hours. The cells were then washed once with serum-free DMEM media, the culture medium was replaced with serum-free DMEM media, and 50 µM or 100 µM of the peptide consisting of the amino acid sequence of SEQ ID NO: 1 was dispensed to the culture medium. The culture medium dispensed with the peptide was cultured in a CO2 incubator at 37° C. for 1 hour, transferred to an e-tube, mixed with 100 ul of PBS, and dispensed into a well plate. Afterwards, using a UV irradiator (VILBER LOURMAT, France), 6 J/cm2 ultraviolet rays were irradiated to NIH3T3 cells, and 15 m J/cm2 ultraviolet rays were irradiated to HaCaT cells. The PBS in the well plate was then removed, 900 μL of the culture medium in which the peptides were dispensed was added, and the plate was cultured in a CO2 incubator at 37° C. for 24 hours. […] After washing the centrifuged cells with PBS, FL1 fluorescence values were measured through flow cytometry (FACS, BD, USA). […]

NIH3T3 cells [2] = assay: Survival rate after ultraviolet-induced apoptosis (SRB), NIH3T3; type: cell-based, mouse; conditions: 6 J/cm2 ultraviolet rays, 50 µM or 100 µM peptide, 72 hours, FIG. 6A
Experimental: (§3) In this example, the aim was to confirm the effect of the peptide according to an example on the inhibition of apoptosis or cell recovery of skin cells induced by ultraviolet rays, by evaluating the change in survival rate of skin cells whose apoptosis was induced by ultraviolet irradiation.
(§4) Specifically, NIH3T3 cells or HaCaT cells were seeded in a 96-well plate at a density of 1×10^4 cells/well and cultured for 24 hours. The cells were then washed once with serum-free DMEM media, the culture medium was replaced with serum-free DMEM media, and 50 µM or 100 µM of the peptide consisting of the amino acid sequence of SEQ ID NO: 1 was dispensed to the culture medium. The culture medium dispensed with the peptide was cultured in a CO2 incubator at 37° C. for 1 hour, transferred to an e-tube, mixed with 100 ul of PBS, and dispensed into a well plate. Afterwards, using a UV irradiator (VILBER LOURMAT, France), 6 J/cm2 ultraviolet rays were irradiated to NIH3T3 cells, and 15 m J/cm2 ultraviolet rays were irradiated to HaCaT cells. The PBS in the well plate was then removed, 900 μL of the culture medium in which the peptides were dispensed was added, and the plate was cultured in a CO2 incubator at 37° C. for 72 hours. […] The dried culture was then dissolved in 20 mM Tris buffer solution and the absorbance at 560 nm was measured using a microplate reader (Molecular Devices, USA). […]

aquaporin-3 (AQP3) = assay: Expression of AQP3 in HaCaT cells (RT-PCR); type: cell-based, human; conditions: 50 µM or 100 µM peptide, 24 hours, FIG. 4, FIG. 5B
Experimental: (§5) In this example, the aim was to confirm the effect of the peptides according to an example on skin barrier defense, by evaluating the expression levels of sirtuin-1 (SIRT-1) or aquaporin-3 (AQP3).
(§6) Specifically, HaCaT cells were seeded in a 6-well plate at a density of 3×10^5 cells/well and cultured for 24 hours. The cells were then washed once with serum-free DMEM media, and the culture medium was replaced with serum-free DMEM media. Thereafter, 50 µM or 100 µM of the peptide consisting of the amino acid sequence of SEQ ID NO: 1 was dispensed into the medium, and cultured in a CO2 incubator at 37° C. for 24 hours. The culture was then washed twice with PBS, and RNA was isolated from the culture using easy blue (iNtRON, Korea). Using the RT kit (Enzynomics, Korea), 1 μg of the isolated RNA was reverse transcribed to synthesize the respective cDNA. Polymerase chain reaction was then performed using the cDNAs and primers sirtuin-1 and aquaporin-3. Meanwhile, the untreated group was used as the control group, and the group to which EGF was added (EGF) was used as the positive control group, the nucleotide sequences of the primers used in this example are shown in Table 3 below.

NIH3T3 cells [3] = assay: Proliferation of skin cells (SRB staining), NIH3T3; type: cell-based, mouse; conditions: 50 µM or 100 µM peptide, 72 hours, serum-free DMEM, FIG. 1A
Experimental: (§7) In this example, the aim was to confirm the effect of a peptide according to an example on proliferation of skin cells, by evaluating changes in survival rate of NIH3T3 cells, which are mouse fibroblasts, or HaCaT cells, which are human keratinocytes.
(§8) Specifically, NIH3T3 cells or HaCaT cells were seeded in a 96-well plate at a density of 5×10^3 cells/well and cultured for 24 hours. The cells were then washed once with serum-free DMEM media, and the culture medium was replaced with serum-free DMEM media. Then, 50 µM or 100 µM of the peptide consisting of the amino acid sequence of SEQ ID NO: 1 was dispensed into the medium, and cultured in a CO2 incubator at 37° C. for 72 hours. The culture was then washed twice with PBS and treated with 4% paraformaldehyde (PFA) solution for 15 minutes to fix the cultured cells. The culture was then washed twice with distilled water, treated with SRB solution for 1 hour to stain the cells, washed with 1% acetic acid solution, and dried. The dried culture was then dissolved in 20 mM Tris buffer solution and the absorbance at 560 nm was measured using a microplate reader (Molecular Devices, USA). In this example, the untreated group was used as the control group, and the group to which insulin-like growth factor was added (IGF) was used as the positive control group.

collagen type 1 (Col1a1) = assay: Expression of Col1a1 in NIH3T3 cells (RT-PCR); type: cell-based, mouse; conditions: 50 µM or 100 µM peptide, 24 hours, FIG. 2, FIG. 3A
Experimental: (§9) In this example, the aim was to confirm the effect of the peptide according to an example on improving endogenous skin aging, including improvement of wrinkles and enhancement of elasticity, etc., by evaluating the expression levels of collagen type 1 (Col1a1), fibronectin, or elastin, which are known components of the dermis.
(§10) Specifically, NIH3T3 cells were seeded in a 6-well plate at a density of 3×10^5 cells/well and cultured for 24 hours. The cells were then washed once with serum-free DMEM media, and the culture medium was replaced with serum-free DMEM media. Thereafter, 50 µM or 100 µM of the peptide consisting of the amino acid sequence of SEQ ID NO: 1 was dispensed into the medium, and cultured in a CO2 incubator at 37° C. for 24 hours. The culture was then washed twice with PBS, and RNA was isolated from the culture using easy blue (iNtRON, Korea). Using an RT kit (Enzynomics, Korea), 1 μg of the isolated RNA was reverse transcribed to synthesize the respective cDNA. Polymerase chain reaction (PCR) was then performed using the cDNAs and primers Col1a1, fibronectin, and elastin. Meanwhile, the untreated group was used as the control group, and the group to which TGF-β1 was added (TGF-β1) was used as the positive control group, the nucleotide sequences of the primers used in this example are shown in Table 2 below.

HaCaT cells [4] = assay: Proliferation of skin cells (SRB staining), HaCaT; type: cell-based, human; conditions: 50 µM or 100 µM peptide, 72 hours, serum-free DMEM, FIG. 1B
Experimental: as §7, §8

HaCaT cells [5] = assay: Survival rate after ultraviolet-induced apoptosis (SRB), HaCaT; type: cell-based, human; conditions: 15 m J/cm2 ultraviolet rays, 50 µM or 100 µM peptide, 72 hours, FIG. 6B
Experimental: as §3, §4

elastin = assay: Expression of elastin in NIH3T3 cells (RT-PCR); type: cell-based, mouse; conditions: 50 µM or 100 µM peptide, 24 hours, FIG. 2, FIG. 3C
Experimental: as §9, §10

sirtuin-1 (SIRT-1) = assay: Expression of SIRT-1 in HaCaT cells (RT-PCR); type: cell-based, human; conditions: 50 µM or 100 µM peptide, 24 hours, FIG. 4, FIG. 5A
Experimental: as §5, §6

fibronectin = assay: Expression of fibronectin in NIH3T3 cells (RT-PCR); type: cell-based, mouse; conditions: 50 µM or 100 µM peptide, 24 hours, FIG. 2, FIG. 3B
Experimental: as §9, §10

NIH3T3 cells [6] = assay: Reactive oxygen species level after ultraviolet irradiation (DCF-DA, FACS), NIH3T3; type: cell-based, mouse; conditions: 6 J/cm2 ultraviolet rays, 50 µM or 100 µM peptide, 24 hours, FIG. 7A
Experimental: as §1, §2

**Q.** How did the “level of reactive oxygen species in keratinocytes increased by ultraviolet irradiation” value (HaCaT cells [1]) turn out when EALKYWYEN (Peptide 1) [SEQ ID NO: 1] was run?
**A.** Its value is “reduced”.

**Q.** And the “cell survival rate of fibroblasts reduced by ultraviolet irradiation” value (NIH3T3 cells [2])?
**A.** The value was “restored”.

**Q.** And the “expression of AQP3” value (aquaporin-3 (AQP3))?
**A.** The value was “increased”.

**Q.** What about the proliferation of fibroblasts (NIH3T3 cells [3]) of the same sequence?
**A.** Its proliferation of fibroblasts is “promoted”.

**Q.** And the “expression of Col1a1” value (collagen type 1 (Col1a1))?
**A.** Its value is “increased”.

**Q.** And the proliferation of keratinocytes (HaCaT cells [4])?
**A.** Its proliferation of keratinocytes is “promoted”.

**Q.** And the “cell survival rate of keratinocytes reduced by ultraviolet irradiation” value (HaCaT cells [5])?
**A.** Its value is “restored”.

**Q.** What about the expression of elastin (elastin) of the same sequence?
**A.** The expression of elastin was “increased”.

**Q.** What about the “expression of SIRT-1” value (sirtuin-1 (SIRT-1)) of the same sequence?
**A.** Its value is “increased”.

**Q.** What about the expression of fibronectin (fibronectin) of the same sequence?
**A.** Its expression of fibronectin is “increased”.

**Q.** What about the “level of reactive oxygen species in fibroblasts increased by ultraviolet irradiation” value (NIH3T3 cells [6]) of the same sequence?
**A.** The value was “reduced”.
